According to article PMC5578373, “Inhibitory Kappa B Kinase α (IKKα) Inhibitors That Recapitulate Their Selectivity in Cells against Isoform-Related Biomarkers” (Journal of Medicinal Chemistry, 2017):
Where two headings read alike, the source gives them in different places.

Columns and labels:
IKKα = biological target: T1, IKKα (Homo sapiens, UniProt O15111); experiment: DELFIA kinase assay, IKKα; type: biochemical; details: for Ki: apparent Ki (Cheng–Prusoff), 40 μM ATP, three independent experiments, read-out: IKKα (Ki ± SEM μM); for IKKα inhibitory activity: SAR discussion
T1 construct: purchased Millipore, Dundee, UK
T1 sequence (O15111 1-745): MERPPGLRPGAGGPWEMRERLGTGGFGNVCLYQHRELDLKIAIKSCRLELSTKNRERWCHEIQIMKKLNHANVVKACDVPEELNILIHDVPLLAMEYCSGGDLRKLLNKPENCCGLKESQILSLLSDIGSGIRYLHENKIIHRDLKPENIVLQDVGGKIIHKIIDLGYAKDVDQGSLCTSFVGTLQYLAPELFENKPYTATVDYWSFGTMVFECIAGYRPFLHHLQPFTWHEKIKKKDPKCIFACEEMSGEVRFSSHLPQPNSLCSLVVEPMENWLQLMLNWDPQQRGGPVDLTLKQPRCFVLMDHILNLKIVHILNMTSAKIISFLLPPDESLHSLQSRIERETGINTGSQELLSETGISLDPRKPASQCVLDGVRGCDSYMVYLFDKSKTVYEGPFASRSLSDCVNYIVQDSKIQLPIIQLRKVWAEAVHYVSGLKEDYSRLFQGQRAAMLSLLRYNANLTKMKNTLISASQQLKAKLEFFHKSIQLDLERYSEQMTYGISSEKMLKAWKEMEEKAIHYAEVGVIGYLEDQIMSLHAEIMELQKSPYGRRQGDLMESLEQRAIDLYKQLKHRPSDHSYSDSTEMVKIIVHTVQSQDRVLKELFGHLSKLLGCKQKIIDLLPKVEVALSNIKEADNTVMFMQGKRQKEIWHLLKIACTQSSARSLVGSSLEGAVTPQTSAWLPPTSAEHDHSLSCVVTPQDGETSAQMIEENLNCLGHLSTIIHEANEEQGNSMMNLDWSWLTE

IKKβ = biological target: T2, IKKβ (Homo sapiens, UniProt O14920); experiment: DELFIA kinase assay, IKKβ; type: biochemical
T2 construct: purchased Millipore, Dundee, UK
T2 sequence (O14920 1-756): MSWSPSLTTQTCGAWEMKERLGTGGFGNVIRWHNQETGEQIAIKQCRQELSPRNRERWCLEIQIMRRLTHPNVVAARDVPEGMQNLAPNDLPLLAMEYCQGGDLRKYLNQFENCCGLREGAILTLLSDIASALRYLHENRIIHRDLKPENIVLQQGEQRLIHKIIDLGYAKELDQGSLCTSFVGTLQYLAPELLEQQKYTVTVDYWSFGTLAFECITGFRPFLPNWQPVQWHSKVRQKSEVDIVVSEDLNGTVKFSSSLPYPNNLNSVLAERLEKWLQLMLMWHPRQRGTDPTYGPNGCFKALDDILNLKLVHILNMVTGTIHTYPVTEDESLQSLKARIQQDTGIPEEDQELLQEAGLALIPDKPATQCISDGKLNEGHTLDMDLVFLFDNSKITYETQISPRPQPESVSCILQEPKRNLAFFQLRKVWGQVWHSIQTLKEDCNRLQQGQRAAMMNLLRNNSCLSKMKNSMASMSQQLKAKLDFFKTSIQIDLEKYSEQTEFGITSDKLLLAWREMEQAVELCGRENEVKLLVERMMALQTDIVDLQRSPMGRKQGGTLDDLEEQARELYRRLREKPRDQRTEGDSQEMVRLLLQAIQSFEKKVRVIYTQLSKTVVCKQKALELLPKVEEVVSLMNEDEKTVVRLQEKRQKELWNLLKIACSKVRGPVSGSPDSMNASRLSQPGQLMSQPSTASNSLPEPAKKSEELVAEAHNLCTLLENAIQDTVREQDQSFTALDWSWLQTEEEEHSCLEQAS
Text: To identify hits that could be developed to exploit the differences between the two isoforms, we screened our in-house compound library compiled of fragments designed to target the common hinge-binding motif found in protein kinases. Using a DELFIA kinase assay kit with minor modifications[29] to measure IKKα and IKKβ inhibitory activity, we identified 2-amino-4-chloro-5-cyanopyrrolo[2,3-d]pyrimidine 4 as our primary hit (Table 1). On the basis of the assumption that the 2-aminopyrrolo[2,3-d]pyrimidine core of compound 4 was binding at the hinge of IKKα, we varied substitution at the 4-position widely. Differences in bulk and polar functionality were incorporated to exploit the greater flexibility in the IKKα ATP binding site and the position of the Asn28 side chain at the back of the pocket.
IKKα and IKKβ inhibitory activity was determined using a dissociation enhanced ligand fluorescent immunoassay (DELFIA) based on the protocol of HTScan IKKβ kinase assay (Cell Signaling Technology, USA).
Recombinant IKKα or IKKβ, 37 nM (Millipore, Dundee, UK), was incubated with IκB-α (Ser32) (New England Biolabs, Hitchin, UK), biotinylated peptide substrate (0.375 μM), and 40 μM ATP in assay buffer (40 mM Tris-HCl (pH 7.5), 20 mM MgCl2, EDTA 1 mM, DTT 2 mM, and BSA 0.01 mg/mL) in a V-well 96-well plate in the presence and absence of test compound. The assay plate was incubated for 60 min at 30 °C, after which the kinase reaction was quenched by the addition of 50 mM EDTA, pH 8. The resulting mixture was transferred to a streptavidin-coated 96-well plate (PerkinElmer, Beaconsfield, UK) and incubated for 1 h at 30 °C to immobilize the substrate peptide. After three washes with wash buffer (0.01 M phosphate buffered saline (PBS), 0.05% Tween-20, pH 7.4), a primary antibody against the phosphorylated substrate (phospho-IκB-α) (Ser32/36) (5A5) mouse mAb (New England Biolabs, Hitchin, UK) (1:1000 dilution with 1% bovine serum albumin (BSA) in wash buffer) was added and incubated at 37 °C for 2 h.
After a further three washes, a secondary europiated antibody (Eu–N1 labeled antimouse IgG, (PerkinElmer, Beaconsfield, UK) diluted 1:500 in 1% BSA/wash buffer) was added and incubated at 30 °C for 30 min. After a further five washes, DELFIA enhancement solution (PerkinElmer, Beaconsfield UK) was added and allowed to incubate for 10 min at room temperature, protected from light, to facilitate the chemifluorescent detection. The relative fluorescence units (RFU) signal were measured on a Wallac Victor 1420 multilabel counter (PerkinElmer, Beaconsfield, UK) in time-resolved fluorescence mode. The counter was set at an excitation wavelength of 340 nm with a 400 μs delay before detecting emitted light at 615 nm. The apparent Ki of the phosphorylated substrate was calculated for each compound using the Cheng–Prusoff equation.

[1] = apparent Ki (Cheng–Prusoff), 40 μM ATP, three independent experiments, read-out: IKKβ (Ki ± SEM μM)

Compound	IKKα inhibitory activity (IKKα)	also measured
Nc1nc(-c2ccc(S(N)(=O)=O)cc2)c2cc[nH]c2n1 [Compound 64, 4-(2-Amino-7H-pyrrol[2,3-d]pyrimidin-4-yl)benzenesulfonamide]	–	reduction of activity against IKKα (IKKα; relative to 48 (absence of 5-cyano group)): more than 30 fold
2-Amino-4-(cyclohexylmethylamino)-7H-pyrrolo[2,3-d]pyrimidine-5-carbonitrile [Compound 10]	–	Ki (IKKα): > 30 µM; Ki (IKKβ; [1]): > 30 µM
N#Cc1c[nH]c2nc(N)nc(NCc3ccccc3)c12 [Compound 14, 2-Amino-4-(benzylamino)-7H-pyrrolo[2,3-d]pyrimidine-5-carbonitrile]	–	Ki (IKKβ; supplementary CSV, read-out: IKKbeta Ki (?M)): 19 µM
Nc1nc(Cl)c2cc[nH]c2n1 [Compound 63]	inactive	–
N#Cc1c[nH]c2nc(N)nc(NC3CCCCC3)c12 [Compound 9, 2-Amino-4-(cyclohexylamino)-7H-pyrrolo[2,3-d]pyrimidine-5-carbonitrile]	–	increase in potency against IKKα (IKKα; from methylamine analogue 7 to cyclohexylamine derivative 9): 5 fold
N#Cc1c[nH]c2nc(N)nc(N3CCC(O)C3)c12 (stereo in doubt) [Compound 25, (R)-2-Amino-4-(3-hydroxypyrrolidin-1-yl)-7H-pyrrolo[2,3-d]pyrimidine-5-carbonitrile]	active and selective against IKKα	–
N#Cc1c[nH]c2nc(N)nc(N3CCC(S(N)(=O)=O)CC3)c12 [Compound 18, 1-(2-Amino-5-cyano-7H-pyrrolo[2,3-d]pyrimidin-4-yl)piperidine-4-sulfonamide]	active	–
NC(=O)c1c[nH]c2nc(N)nc(N[C@H]3CC[C@H](O)CC3)c12 [Compound 71, 2-Amino-4-((1R,4R)-4-hydroxycyclohexylamino)-7H-pyrrolo[2,3-d]pyrimidine-5-carboxamide]	attenuated all IKKα inhibitory activity	–
N#Cc1c[nH]c2nc(N)nc(-c3cccc(C(N)=O)c3)c12 [Compound 55, 3-(2-Amino-5-cyano-7H-pyrrolo[2,3-d]pyrimdin-4-yl)benzamide]	inactive	IKKβ inhibitory activity (IKKβ; SAR discussion): inactive
4-((2-Amino-5-cyano-7H-pyrrolo[2,3-d]pyrimidin-4-yl)amino)benzoic acid [Compound 12]	–	Ki (IKKα): > 30 µM; Ki (IKKβ; [1]): > 30 µM
2-Amino-4-(3-hydroxypropylamino)-7H-pyrrolo[2,3-d]pyrimidine-5-carbonitrile [Compound 23]	–	Ki (IKKα): 12.1 ± 6.3 µM; Ki (IKKβ; [1]): > 30 µM
N#Cc1c[nH]c2nc(N)nc(N[C@@H]3CC[C@@H](O)[C@H]3O)c12 (relative stereo) [Compound 30, 2-Amino-4-((1RS,2SR,3RS)-2,3-dihydroxycyclopentylamino)-7H-pyrrolo[2,3-d]pyrimidine-5-carbonitrile]	active and selective	–

The next lines start with results.

IKKα inhibitory activity (IKKα)	Compound	also measured
attenuated all IKKα inhibitory activity	Nc1nc(NC2CCCCC2)c2c(C(F)(F)F)c[nH]c2n1 [Compound 70, N^4-Cyclohexyl-5-(trifluoromethyl)-7H-pyrrolo[2,3-d]pyrimidine-2,4-diamine]	–
inactive	N#Cc1c[nH]c2nc(N)nc(N3CC[C@@H](O)C3)c12 [Compound 24, (R)-2-Amino-4-(3-hydroxypyrrolidin-1-yl)-7H-pyrrolo[2,3-d]pyrimidine-5-carbonitrile]	–
inactive	N#Cc1c[nH]c2nc(N)nc(N(CCO)C3CCCCC3)c12 [Compound 29, 2-Amino-4-(cyclohexyl(2-hydroxyethyl)amino)-7H-pyrrolo[2,3-d]pyrimidine-5-carbonitrile]	–
active and selective against IKKα	N#Cc1c[nH]c2nc(N)nc(N[C@H]3CC[C@H](O)CC3)c12 [Compound 28, 2-Amino-4-((1R,4R)-4-hydroxycyclohexylamino)-7H-pyrrolo[2,3-d]pyrimidine-5-carbonitrile]	–
active	N#Cc1c[nH]c2nc(N)nc(N3CCCCC3)c12 [Compound 17, 2-Amino-4-(piperidin-1-yl)-7H-pyrrolo[2,3-d]pyrimidine-5-carbonitrile]	–
